These results are taken from DBAASP.

Converted amounts (≈) assume the structure as drawn. “And” between values parts separate entries of the source, which are not always exact repeats. Equal entries are not always repeated.

Some test systems named below: Escherichia coli O157; Listeria monocytogenes; Salmonella typhimurium; Citrobacter freundii; Enterobacter cloacae; Enterococcus faecalis; Escherichia coli NDM-1; Klebsiella oxytoca; Morganella morganii; Bacillus subtilis 168; Escherichia coli BL21; Escherichia coli ESBL; Staphylococcus aureus; Escherichia coli E416-7.
Common to all, as to test: ≥ marks a high value that may be exact or a test limit, other limits are often not marked, values filed in µg/mL are converted to µM
Test [1] relates to Acinetobacter baumannii ATCC 17978D-5.
Test [2] relates to Enterococcus faecium ATCC 700221.
The test system of test [3] is Klebsiella aerogenes ATCC 13048.
Test [4] has as its system Pseudomonas aeruginosa ATCC 19660.
The subject of test [5] is Pseudomonas aeruginosa ATCC 27853.
Test [6] has as its system Staphylococcus aureus ATCC 33591.
For test [7], the system named is Staphylococcus epidermidis ATCC 51625.
In test [8] the test system is Streptococcus pneumoniae ATCC 49619.
In test [9] the test system is Escherichia coli ATCC 25404.
Test [10] concerns Micrococcus luteus ATCC 10420.
The test system of test [11] is Staphylococcus aureus ATCC 25923.
Test [12] relates to Staphylococcus epidermidis ATCC 9709.
Test [13] concerns Bacillus subtilis ATCC 23857.
The test system of test [14] is Escherichia coli ATCC 25922.
Test [15] deals with Klebsiella pneumoniae NDM-1.
The subject of test [16] is Staphylococcus aureus ATCC 1717.
In test [17] the test system is Enterococcus faecium V286-17.
Test [18] deals with Klebsiella pneumoniae ATCC 13883.
Test [19] has as its system Klebsiella pneumoniae E406-17.
The test system of test [20] is Pseudomonas aeruginosa E411-17.
Test [21] deals with Pseudomonas aeruginosa PAO1.
In test [22] the test system is Staphylococcus aureus JE2.
Test [23] relates to Staphylococcus aureus M838-17.
The subject of test [24] is Staphylococcus aureus USA 300.
For test [25], the system named is Bacillus amyloliquefaciens ATCC 23842.
For test [26], the system named is Bacillus cereus ATCC 14579.
The subject of test [27] is Bacillus licheniformis ATCC 14580.
Test [28] relates to Bacillus subtilis ATCC 6051.
The test system of test [29] is Enterococcus faecalis 1F-1.
For test [30], the system named is Enterococcus faecium 5F-10.
The subject of test [31] is Proteus mirabilis ATCC 35659.
The subject of test [32] is Salmonella enterica ATCC H9812.
Test [33] concerns Staphylococcus aureus ATCC 29213.

Usually MIC stands for the smallest concentration in the dilution series that meets the test's criterion for growth inhibition. For the compound `C[C@H](NC(=O)[C@H](Cc1ccccc1)NC(=O)[C@H](C)NC(=O)[C@H](Cc1ccccc1)NC(=O)[C@H](C)NC(=O)[C@H](Cc1ccccc1)NC(=O)[C@H](CCCCN)NC(=O)[C@H](CCCCN)NC(=O)[C@H](C)NC(=O)[C@H](Cc1ccccc1)NC(=O)[C@H](CCCCN)NC(=O)[C@H](CCCCN)NC(=O)[C@H](Cc1ccccc1)NC(=O)[C@H](CCCCN)NC(=O)[C@H](CCCCN)NC(=O)[C@H](C)NC(=O)[C@H](Cc1ccccc1)NC(=O)[C@H](CCCCN)NC(=O)[C@H](CCCCN)NC(=O)[C@H](C)NC(=O)[C@@H](N)Cc1ccccc1)C(=O)N[C@@H](Cc1ccccc1)C(=O)O` [FAKKFAKKFKKFAKKFAFAFAF], the MIC came out at 12.1 µM (≈ 32 µg/mL) in test [1]; 12.1 µM (≈ 32 µg/mL) in test [2]; 12.1 µM (≈ 32 µg/mL) in test [3]; 12.1 µM (≈ 32 µg/mL) in test [4]; 12.1 µM (≈ 32 µg/mL) in test [5]; 24.2 µM (≈ 64 µg/mL) in test [6]. The MIC was determined as 3.02 µM (≈ 8 µg/mL) in test [7] and 6.04 µM (≈ 16 µg/mL) in [8].

Regarding `CC(C)C[C@H](NC(=O)[C@H](CC(C)C)NC(=O)[C@H](CCCCN)NC(=O)[C@H](CO)NC(=O)[C@H](CC(C)C)NC(=O)[C@H](C)NC(=O)[C@H](Cc1cnc[nH]1)NC(=O)[C@H](Cc1c[nH]c2ccccc12)NC(=O)[C@H](CC(C)C)NC(=O)[C@H](C)NC(=O)CNC(=O)[C@H](CC(C)C)NC(=O)[C@@H](N)Cc1ccccc1)C(=O)O` [FLGALWHALSKLL], the MIC was not below 64 µM in test [9]; not below 64 µM against Escherichia coli O157; 8 µM (≈ 11.8 µg/mL) against Listeria monocytogenes; 2 µM (≈ 2.94 µg/mL) in [10]; not below 64 µM with Salmonella typhimurium; 8 µM (≈ 11.8 µg/mL) in [11]. The minimum inhibitory concentration (MIC) in test [12] was determined as 4 µM (≈ 5.88 µg/mL).

As for `CC[C@H](C)[C@H](NC(=O)CNC(=O)[C@@H](NC(=O)[C@H](CCCCN)NC(=O)[C@H](C)NC(=O)[C@@H](NC(=O)[C@@H](NC(=O)CN)[C@@H](C)CC)[C@@H](C)CC)[C@@H](C)CC)C(=O)N[C@@H](CCCCN)C(=O)N[C@H](C(=O)N[C@@H](CCCCN)C(=O)N[C@@H](CCCCN)C(N)=O)[C@@H](C)CC` [GIIAKIGIKIKK], the MIC in test [13] was 16 µM (≈ 20.5 µg/mL); against Citrobacter freundii, 22.6 µM (≈ 29 µg/mL); with Enterobacter cloacae, 22.6 µM (≈ 29 µg/mL); in the test on Enterococcus faecalis it was not below 128 µM; in [14], 32 µM (≈ 41 µg/mL); against Escherichia coli NDM-1 it was 16 µM (≈ 20.5 µg/mL). Further, the MIC against Klebsiella oxytoca is not below 64 µM; in test [15] it was 22.6 µM (≈ 29 µg/mL); with Morganella morganii, not below 128 µM; in test [16] it was not below 128 µM.

Regarding `CC[C@H](C)[C@H](NC(=O)CN)C(=O)N[C@H](C(=O)N[C@@H](CCCCN)C(=O)N[C@@H](CCCCN)C(=O)N[C@H](C(=O)N[C@H](C(=O)N[C@@H](CCCCN)C(=O)N[C@@H](CCCCN)C(=O)N[C@H](C(=O)N[C@H](C(=O)N[C@@H](CCCCN)C(=O)N[C@@H](CCCCN)C(N)=O)[C@@H](C)CC)[C@@H](C)CC)[C@@H](C)CC)[C@@H](C)CC)[C@@H](C)CC` [GIIKKIIKKIIKK], the minimal inhibitory concentration (MIC) with Bacillus subtilis 168 is 2.5 µM (≈ 3.81 µg/mL); with Escherichia coli BL21, 20 µM (≈ 30.4 µg/mL); in the test on Escherichia coli ESBL it was 20 µM (≈ 30.4 µg/mL); with Staphylococcus aureus it was 20 µM (≈ 30.4 µg/mL).

In the case of `CC(C)C[C@H](NC(=O)[C@H](CC(C)C)NC(=O)[C@H](CCCCN)NC(=O)[C@H](CC(C)C)NC(=O)CNC(=O)[C@H](CC(C)C)NC(=O)[C@H](CO)NC(=O)[C@H](CC(C)C)NC(=O)[C@H](CC(C)C)NC(=O)[C@H](CC(C)C)NC(=O)[C@H](CCCCN)NC(=O)[C@H](CC(C)C)NC(=O)CN)C(N)=O` [GLKLLLSLGLKLL], the MIC is 4.4 µM (≈ 6.07 µg/mL) in [17]; more than 25 µM in test [14]; not below 50 µM with Escherichia coli E416-7; 25 µM (≈ 34.5 µg/mL) in [18]; not below 50 µM in [19]; not below 50 µM in test [20]. In addition, the minimal inhibitory concentration (MIC) was more than 25 µM in [21]; 1.13 µM (≈ 1.56 µg/mL) in [22]; 2.25 µM (≈ 3.1 µg/mL) in [23]; 1.6 µM and 3.1 µM and 4.4 µM in [24].

Turning to `CC(C)C[C@H](NC(=O)[C@@H](N)CC(C)C)C(=O)N[C@@H](CO)C(=O)N[C@@H](CCCN=C(N)N)C(=O)N[C@H](C(=O)N[C@@H](CC(=O)O)C(=O)O)C(C)C` [LLSRVD], the MIC in test [25], in test [26], in test [27], in [28], in test [29] and in test [30] was not below 182 µM each time. The MIC in test [14] was 91.2 µM (≈ 64 µg/mL); in test [31], not below 182 µM; in test [21], more than 182 µM; in test [32], not below 182 µM; in test [33], more than 182 µM.
